PubChem BioAssay (NCI)
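96-well plates; 48 h exposure; 5 concentrations. Endpoints by linear interpolation between flanking doses. Not reached: highest tested concentration assigned. The concentration for full growth arrest is given as TGI.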

Assays:
Test in all cases: NCI tumour cell line growth inhibition, 48 h
[1] = tested on: IGROV1 ovarian
[2] = tested on: DMS 114 small cell lung
[3] = tested on: RXF 393 renal
[4] = tested on: UACC-62 melanoma
[5] = tested on: A549 NSCLC
[6] = tested on: SNB-75 CNS
[7] = tested on: NCI-H226 lung
[8] = tested on: HT29 colon
[9] = tested on: CAKI-1 renal
[10] = tested on: TK-10 renal
[11] = tested on: NCI-H460 lung
[12] = tested on: SNB-78 CNS
[13] = tested on: UACC-257 melanoma
[14] = tested on: KM20L2 colon
[15] = tested on: NCI-H23 lung
[16] = tested on: LOX IMVI melanoma
[17] = tested on: CCRF-CEM leukemia
[18] = tested on: UO-31 renal
[19] = tested on: OVCAR-4 ovarian
[20] = tested on: ACHN renal
[21] = tested on: 786-0 renal
[22] = tested on: HOP-18 NSCLC
[23] = tested on: SK-MEL-28 melanoma
[24] = tested on: HCT-116 colon
[25] = tested on: OVCAR-8 ovarian
[26] = tested on: SF-268 CNS
[27] = tested on: DLD-1 colon
[28] = tested on: U251 CNS
[29] = tested on: OVCAR-3 ovarian
[30] = tested on: MOLT-4 leukemia
[31] = tested on: SK-OV-3 ovarian
[32] = tested on: DMS 273 small cell lung
[33] = tested on: M19-MEL melanoma
[34] = tested on: LXFL 529 NSCLC
[35] = tested on: OVCAR-5 ovarian
[36] = tested on: RPMI-8226 leukemia
[37] = tested on: KM12 colon
[38] = tested on: K-562 leukemia
[39] = tested on: MALME-3M melanoma
[40] = tested on: SK-MEL-2 melanoma
[41] = tested on: SN12C renal
[42] = tested on: XF 498 CNS
[43] = tested on: SW-620 colon
[44] = tested on: HCT-15 colon
[45] = tested on: SNB-19 CNS
[46] = tested on: M14 melanoma
[47] = tested on: SK-MEL-5 melanoma
[48] = tested on: SF-539 CNS
[49] = tested on: EKVX NSCLC
[50] = tested on: SF-295 CNS
[51] = tested on: NCI-H522 lung
[52] = tested on: RXF-631 renal
[53] = tested on: COLO 205 colon
[54] = tested on: HOP-92 NSCLC
[55] = tested on: P388/ADR leukemia
[56] = tested on: HOP-62 NSCLC
[57] = tested on: MCF7 breast
[58] = tested on: HL-60(TB) leukemia
[59] = tested on: NCI/ADR-RES ovarian
[60] = tested on: HCC-2998 colon
[61] = tested on: SN12K1 renal
[62] = tested on: A498 renal
[63] = tested on: P388 leukemia

Measured: TGI

Cc1cc2c(=O)cc(-c3ccc(F)cc3)oc2c(C(=O)O)c1C
> 100 µM: [1] | [2] | [3] | [4] | [5] | [6] | [7] | [8] | [9] | [10] | [11] | [12] | [13] | [14] | [15] | [16] | [17] | [18] | [19] | [20] | [21] | [22] | [23] | [24] | [25] | [26] | [27] | [28] | [29] | [30] | [31] | [32] | [33] | [34] | [35] | [36] | [37] | [38] | [39] | [40] | [41] | [42] | [43] | [44] | [45] | [46] | [47] | [48] | [49] | [50] | [51] | [52] | [53]

Cc1c(N=NN(C)C)cc[n+]([O-])c1C
> 100 µM: [1] | [2] | [3] | [4] | [5] | [6] | [7] | [8] | [9] | [11] | [12] | [13] | [14] | [54] | [15] | [16] | [17] | [55] | [18] | [19] | [56] | [57] | [22] | [23] | [24] | [25] | [26] | [27] | [28] | [29] | [30] | [31] | [32] | [33] | [35] | [36] | [37] | [58] | [38] | [39] | [59] | [40] | [41] | [42] | [43] | [44] | [60] | [45] | [61] | [47] | [48] | [49] | [50] | [62] | [51] | [53] | [63]

Clc1cccc2c1OCC1C(c3ccccc3)=NN(c3ccccc3)C21 (stereo not given)
90.7 µM: [47]
> 100 µM: [1] | [2] | [3] | [5] | [6] | [8] | [10] | [11] | [12] | [13] | [14] | [54] | [15] | [16] | [17] | [18] | [20] | [56] | [21] | [22] | [23] | [24] | [25] | [26] | [27] | [28] | [29] | [30] | [31] | [32] | [33] | [34] | [35] | [36] | [37] | [58] | [38] | [39] | [40] | [42] | [43] | [60] | [45] | [49] | [50] | [62] | [51] | [52] | [53]
